pIC50, pKd: −log10 of the molar value.
Tests used:
[1] = test system: JAK1/TYK2 pSTAT5 (Tyr694/699) in THP-1 cell line; assay: IFNa-stimulated JAK1/TYK2 pSTAT5 (Tyr694/699) inhibition cellular assay, AlphaLISA; assay type: cell-based; settings: Homo sapiens; THP-1 cells, IFNa-stimulated, AlphaLISA (Assay B); read-out: Cellular_THP1_IFNa-pSTATS_TYK2
How it was run: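 Compound dilutions were dispensed first, and HBSS-suspended THP-1 cells were added on top (final top concentration 10000 nM, 6-fold series). After 1 h at 37 °C, IFNa (100 ng/mL as added) was applied for 30 min. Cells were then lysed and pSTAT5 was quantified by AlphaLISA.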

[2] = target: T1, TYK2 JH2 (Homo sapiens, UniProt P29597); assay: TYK2 JH2 binding assay (KINOMEscan KdELECT competitive binding); settings: TYK2 JH2 domain, DiscoverX KINOMEscan KdELECT (Assay A); read-out: Biochemical TYK2_DiscoverX_JH2_BND_Kd
T1 construct: purchased DiscoverX (KINOMEscan KdELECT service); host or cells: E. coli BL21-derived (T7 phage display) or HEK-293
How it was run: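 The assay measures displacement of DNA- or phage-tagged TYK2 pseudokinase domain from an affinity resin; compound binding lowers the amount captured, read by qPCR. Incubation lasts 1 h at room temperature.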

T1 sequence (P29597 589-875 limits assumed): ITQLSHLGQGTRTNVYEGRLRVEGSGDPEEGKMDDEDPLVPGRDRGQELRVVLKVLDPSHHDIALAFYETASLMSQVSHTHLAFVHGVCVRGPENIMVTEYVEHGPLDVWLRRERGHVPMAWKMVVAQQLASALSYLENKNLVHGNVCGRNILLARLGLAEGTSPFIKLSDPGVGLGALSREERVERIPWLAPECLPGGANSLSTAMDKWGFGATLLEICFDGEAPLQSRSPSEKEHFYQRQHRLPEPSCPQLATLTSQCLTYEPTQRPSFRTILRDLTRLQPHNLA

Structure (SMILES) | pIC50 [1] | pKd [2]
CNc1ncc(-c2nc3cc(OC4COC4)ccc3o2)c2cc(NC(=O)C3CC3)ncc12 [Example 228, N-(8-(methylamino)-5-(5-(oxetan-3-yloxy)benzo[d]oxazol-2-yl)-2,7-naphthyridin-3-yl)cyclopropanecarboxamide] | ≥ 6.30 | ≥ 7.00
CNc1ncc(-c2nc3cc(OC4CCOC4)ccc3o2)c2cc(NC(=O)C3CC3)ncc12 (centres unmarked) [Example 229, N-(8-(methylamino)-5-(5-((tetrahydrofuran-3-yl)oxy)benzo[d]oxazol-2-yl)-2,7-naphthyridin-3-yl)cyclopropanecarboxamide] | ≥ 6.30 | ≥ 7.00
CNc1ncc(-c2nc3cc(OC4CN(C(C)=O)C4)ccc3o2)c2cc(NC(=O)C3CC3)ncc12 [Example 230, N-(5-(5-((1-acetylazetidin-3-yl)oxy)benzo[d]oxazol-2-yl)-8-(methylamino)-2,7-naphthyridin-3-yl)cyclopropanecarboxamide] | ≥ 6.30 | ≥ 7.00
CNc1ncc(-c2nc3cc(OCCOC)ccc3o2)c2cc(NC(=O)C3CC3)ncc12 [Example 231, N-(5-(5-(2-methoxyethoxy)benzo[d]oxazol-2-yl)-8-(methylamino)-2,7-naphthyridin-3-yl)cyclopropanecarboxamide] | ≥ 6.30 | ≥ 7.00
CNc1ncc(-c2nc3cc(O[C@H]4C[C@@H](C#N)C4)ccc3o2)c2cc(NC(=O)C3CC3)ncc12 [Example 232, N-(5-(5-((1s,3s)-3-cyanocyclobutoxy)benzo[d]oxazol-2-yl)-8-(methylamino)-2,7-naphthyridin-3-yl)cyclopropanecarboxamide] | ≥ 6.30 | ≥ 7.00
CNc1ncc(-c2nc3cc(O[C@H]4C[C@H](C#N)C4)ccc3o2)c2cc(NC(=O)C3CC3)ncc12 [Example 233, N-(5-(5-((1r,3r)-3-cyanocyclobutoxy)benzo[d]oxazol-2-yl)-8-(methylamino)-2,7-naphthyridin-3-yl)cyclopropanecarboxamide] | ≥ 6.30 | ≥ 7.00
CNc1ncc(-c2nc3cc(OCc4ccccc4)ccc3o2)c2cc(NC(=O)C3CC3)ncc12 [Example 234, N-(5-(5-(benzyloxy)benzo[d]oxazol-2-yl)-8-(methylamino)-2,7-naphthyridin-3-yl)cyclopropanecarboxamide] | ≥ 6.30 | ≥ 7.00
CNc1ncc(-c2nc3cc(OCCN4CCOCC4)ccc3o2)c2cc(NC(=O)C3CC3)ncc12 [Example 235, N-(8-(methylamino)-5-(5-(2-morpholinoethoxy)benzo[d]oxazol-2-yl)-2,7-naphthyridin-3-yl)cyclopropanecarboxamide] | ≥ 6.30 | ≥ 7.00
CNc1ncc(-c2nc3cc(OCC(C)(C)C#N)ccc3o2)c2cc(NC(=O)C3CC3)ncc12 [Example 236, N-(5-(5-(2-cyano-2-methylpropoxy)benzo[d]oxazol-2-yl)-8-(methylamino)-2,7-naphthyridin-3-yl)cyclopropanecarboxamide] | ≥ 6.30 | ≥ 7.00
CNc1ncc(-c2nc3cc(C(N)=O)ccc3o2)c2cc(NC(=O)C3CC3)ncc12 [Example 237, 2-(6-(cyclopropanecarboxamido)-1-(methylamino)-2,7-naphthyridin-4-yl)benzo[d]oxazole-5-carboxamide] | ≥ 6.30 | ≥ 7.00
CNC(=O)c1ccc2oc(-c3cnc(NC)c4cnc(NC(=O)C5CC5)cc34)nc2c1 [Example 238, 2-(6-(cyclopropanecarboxamido)-1-(methylamino)-2,7-naphthyridin-4-yl)-N-methylbenzo[d]oxazole-5-carboxamide] | ≥ 6.30 | ≥ 7.00
CNc1ncc(-c2nc3cc(OC[C@@H](C)O)ccc3o2)c2cc(NC(=O)C3CC3)ncc12 [Example 239, (R)—N-(5-(5-(2-hydroxypropoxy)benzo[d]oxazol-2-yl)-8-(methylamino)-2,7-naphthyridin-3-yl)cyclopropanecarboxamide] | ≥ 6.30 | ≥ 7.00
CNc1ncc(-c2nc3cc(OC[C@H](C)O)ccc3o2)c2cc(NC(=O)C3CC3)ncc12 [Example 240, (S)—N-(5-(5-(2-hydroxypropoxy)benzo[d]oxazol-2-yl)-8-(methylamino)-2,7-naphthyridin-3-yl)cyclopropanecarboxamide] | ≥ 6.30 | ≥ 7.00
CNc1ncc(-c2nc3cc(OC[C@@H](C)OC)ccc3o2)c2cc(NC(=O)C3CC3)ncc12 [Example 241, (R)—N-(5-(5-(2-methoxypropoxy)benzo[d]oxazol-2-yl)-8-(methylamino)-2,7-naphthyridin-3-yl)cyclopropanecarboxamide] | ≥ 6.30 | ≥ 7.00
CNc1ncc(-c2nc3cc(OC[C@H](C)OC)ccc3o2)c2cc(NC(=O)C3CC3)ncc12 [Example 242, (S)—N-(5-(5-(2-methoxypropoxy)benzo[d]oxazol-2-yl)-8-(methylamino)-2,7-naphthyridin-3-yl)cyclopropanecarboxamide] | ≥ 6.30 | ≥ 7.00
CNc1ncc(-c2nc3cc(C(C)(F)F)ccc3o2)c2cc(NC(=O)C3CC3)ncc12 [Example 243, N-(5-(5-(1,1-difluoroethyl)benzo[d]oxazol-2-yl)-8-(methylamino)-2,7-naphthyridin-3-yl)cyclopropanecarboxamide] | ≥ 6.30 | ≥ 7.00
CNc1ncc(-c2nc3cc(C(F)F)ccc3o2)c2cc(NC(=O)C3CC3)ncc12 [Example 244, N-(5-(5-(difluoromethyl)benzo[d]oxazol-2-yl)-8-(methylamino)-2,7-naphthyridin-3-yl)cyclopropanecarboxamide] | ≥ 6.30 | ≥ 7.00
CNc1ncc(-c2nc3cc(CC#N)ccc3o2)c2cc(NC(=O)C3CC3)ncc12 [Example 245, N-(5-(5-(cyanomethyl)benzo[d]oxazol-2-yl)-8-(methylamino)-2,7-naphthyridin-3-yl)cyclopropanecarboxamide] | ≥ 6.30 | ≥ 7.00
CCOc1ccc2oc(-c3cnc(NC)c4cnc(NC(=O)C5CC5)cc34)nc2c1 [Example 246, N-(5-(5-ethoxybenzo[d]oxazol-2-yl)-8-(methylamino)-2,7-naphthyridin-3-yl)cyclopropanecarboxamide] | ≥ 6.30 | ≥ 7.00
CNc1ncc(-c2nc3cc(OCC(F)F)ccc3o2)c2cc(NC(=O)C3CC3)ncc12 [Example 247, N-(5-(5-(2,2-difluoroethoxy)benzo[d]oxazol-2-yl)-8-(methylamino)-2,7-naphthyridin-3-yl)cyclopropanecarboxamide] | ≥ 6.30 | ≥ 7.00
CNc1ncc(-c2nc3cc(COC)ccc3o2)c2cc(NC(=O)C3CC3)ncc12 [Example 248, N-(5-(5-(methoxymethyl)benzo[d]oxazol-2-yl)-8-(methylamino)-2,7-naphthyridin-3-yl)cyclopropanecarboxamide] | ≥ 6.30 | ≥ 7.00
CNc1ncc(-c2nc3cc(C4CCOCC4C)ccc3o2)c2cc(NC(=O)C3CC3)ncc12 (centres unmarked) [Example 249, N-(8-(methylamino)-5-(5-(3-methyltetrahydro-2H-pyran-4-yl)benzo[d]oxazol-2-yl)-2,7-naphthyridin-3-yl)cyclopropanecarboxamide] | ≥ 6.30 | ≥ 7.00
